Reference: US10786508B2, “Substituted imidazo[1,5-A]-pyrimidines and their use in the treatment of medical disorders” (Lysosomal Therapeutics Inc., priority 2014, dated 2020)
Values after ≈ are worked out from the molar mass of the structure shown.

Legend:
[1] = target: T1, glucocerebrosidase (Gcase) (Homo sapiens, UniProt P04062); test: Glucocerebrosidase (Gcase) activation assay, 4-methylumbelliferyl-beta-D-glucopyranoside substrate, with saposin C; format: biochemical; details: 10 nM GCase, 100 nM saposin C, pH 4.7; for activation at 0.1 µM: 0.1 μM test compound, read-out: Percent Gease Activation 0.1 μM Test Compound; for activation at 1 µM: 1 μM test compound, read-out: Percent Gease Activation 1 μM Test Compound
T1 construct: micellar solution containing 10 nM GCase and 100 nM saposin C
T1 sequence (P04062 40-536): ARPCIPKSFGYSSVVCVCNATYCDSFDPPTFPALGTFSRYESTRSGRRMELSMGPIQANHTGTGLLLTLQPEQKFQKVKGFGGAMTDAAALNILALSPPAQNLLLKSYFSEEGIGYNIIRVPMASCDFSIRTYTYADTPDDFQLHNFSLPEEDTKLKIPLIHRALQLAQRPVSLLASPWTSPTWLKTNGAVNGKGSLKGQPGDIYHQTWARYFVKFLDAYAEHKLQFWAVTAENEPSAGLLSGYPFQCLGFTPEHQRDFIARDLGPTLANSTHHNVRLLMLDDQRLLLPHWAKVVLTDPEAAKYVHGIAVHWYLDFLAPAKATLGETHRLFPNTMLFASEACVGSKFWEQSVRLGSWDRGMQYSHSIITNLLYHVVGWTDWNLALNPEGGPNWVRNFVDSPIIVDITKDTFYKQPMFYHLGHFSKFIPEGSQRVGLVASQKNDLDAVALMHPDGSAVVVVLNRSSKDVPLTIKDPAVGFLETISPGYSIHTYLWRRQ
Procedure: The ability of exemplary compounds to activate glucocerebrosidase (Gcase) was measured.
A 484 μL aliquot of a 1.0 mg/mL solution of phosphatidylserine (PS) (Sigma P7769) in chloroform was evaporated under a stream of nitrogen for 1 hour. The lipid film was dissolved over 4 minutes of vigorous vortexing in 40 mL of 176 mM K2HPO4/50 mM citric acid (pH 4.7) containing 7.5 μL of triton X-100, resulting in a mixed micellar preparation with a composition of 0.32 mM triton and 0.37 mol % PS. 4-Methylumbelliferyl-beta-D-glucopyranoside (ACROS-337025000) was dissolved in the micellar solution to a final concentration of 2 mM for use as the reaction substrate.
Test compounds were diluted to the desired concentrations with dimethylsulfoxide (DMSO) from 10 mM stocks, and 0.41 μL of the DMSO compound mixture was added to 100 μL of micellar solution containing 10 nM GCase and 100 nM saposin C (Enzo ALX-201-262-C050). Pre-incubation was allowed to occur for 30 minutes at room temperature, after which the reaction was initiated by combining 25 μL of substrate solution with 25 μL of compound/GCase/saposin mixture. The reaction proceeded for 15 minutes at room temperature and was stopped by adding 150 μL of 1M glycine, pH 12.5. The endpoint of the reaction was monitored by measuring fluorescence intensity (excitation: 365 nm; emission: 440 nm) on a SpectraMax i3 instrument (Molecular Devices). Test compounds were screened at 1.0 and 0.1 μM final concentration, and subsequent 8-point dose response curves were obtained using 3-fold dilutions from a maximum final concentration of 5 μM.
For experiments in which the test compound was used at a concentration of 1.0 μM, the symbol “+” indicates less than 30% Gcase activation; the symbol “++” indicates Gcase activation in the range of 30% up to 60%; and the symbol “+++” indicates Gcase activation greater than 60%. For experiments in which the test compound was used at a concentration of 0.1 μM, the symbol “*” indicates less than 10% Gcase activation; the symbol “**” indicates Gcase activation in the range of 10% up to 20%; and the symbol “***” indicates greater than 20% Gcase activation.

[2] = Compound solubility in water; format: physicochemical

Structure (SMILES)	activation at 0.1 µM [1]	activation at 1 µM [1]	solubility [2]
Cc1cc(C)n2cnc(C(=O)NC3CCc4ccccc4C3)c2n1 (stereo not drawn) [III-69]	< 10%	30 to 60%	16.6 µg/mL (≈ 51.8 µM)
Cc1cc(C)n2cnc(C(=O)NC3Cc4ccccc4C3)c2n1 [III-67]	< 10%	< 30%	18 µg/mL (≈ 58.8 µM)
Cc1cc(C)n2cnc(C(=O)Nc3ccc4nc(O)cc(C)c4c3)c2n1 [III-13]	< 10%	< 30%	0.3 µg/mL (≈ 0.864 µM)
COCC#Cc1ccc(NC(=O)c2ncn3c(C)cc(C)nc23)cc1 [III-2]	< 10%	30 to 60%	5.8 µg/mL (≈ 17.3 µM)
Cc1cc(C)n2cnc(C(=O)Nc3ccc4c(=O)cc(C)oc4c3)c2n1 [III-17]	< 10%	< 30%	0.4 µg/mL (≈ 1.15 µM)
CCCCCOC1CCC(NC(=O)c2ncn3c(C(C)C)cc(C)nc23)CC1 (stereo not drawn) [III-44]	< 10%	30 to 60%	30.9 µg/mL (≈ 79.9 µM)
Cc1cc(C)n2cnc(C(=O)Nc3ccc4oncc4c3)c2n1 [III-18]	< 10%	< 30%	2.3 µg/mL (≈ 7.48 µM)
Cc1cc(C(C)C)n2cnc(C(=O)N[C@H]3CCCc4ccccc43)c2n1 [III-35]	< 10%	< 30%	21.6 µg/mL (≈ 62 µM)
Cc1cc(C)n2cnc(C(=O)Nc3ccc4[nH]ncc4c3)c2n1 [III-8]	< 10%	< 30%	0.4 µg/mL (≈ 1.31 µM)
C#Cc1ccc(NC(=O)c2ncn3c(C)cc(C)nc23)cn1 [III-5]	< 10%	< 30%	26.6 µg/mL (≈ 91.3 µM)
CCOCc1cccc(C(C)(C)NC(=O)c2ncn3c(COC)cc(C4CC4)nc23)c1 [III-59]	< 10%	30 to 60%	26.3 µg/mL (≈ 62.2 µM)
Cc1cc(C)n2cnc(C(=O)Nc3ncc(C)[nH]3)c2n1 [III-6]	< 10%	< 30%	> 54 µg/mL
COCc1cc(C2CC2)n2cnc(C(=O)NC3(C)CCOc4c(F)ccc(F)c43)c2n1 (stereo not drawn) [III-72]	< 10%	30 to 60%	23.6 µg/mL (≈ 55.1 µM)
Cc1cc(C)n2cnc(C(=O)Nc3ccc(-c4ncco4)cc3)c2n1 [III-4]	< 10%	30 to 60%	7.9 µg/mL (≈ 23.7 µM)
CCCCCO[C@H]1CC[C@H](NC(=O)c2ncn3c(C)cc(C)nc23)CC1 [III-70]	10 to 20%	30 to 60%	19.6 µg/mL (≈ 54.7 µM)
C#Cc1cccc(C(C)(C)NC(=O)c2ncn3c(C)cc(C(F)(F)F)nc23)c1 [III-40]	< 10%	< 30%	40.5 µg/mL (≈ 105 µM)
Cc1cc(C)n2cnc(C(=O)N[C@@H](C)c3cccc(Cl)c3)c2n1 [III-77]	< 10%	30 to 60%	26 µg/mL (≈ 79.1 µM)
O=C(NC1CCCc2ccccc21)c1ncn2c(C(F)F)cc(C(F)F)nc12 (stereo not drawn) [III-32]	< 10%	< 30%	17.2 µg/mL (≈ 43.8 µM)
CCCCCCO[C@H]1CC[C@H](NC(=O)c2ncn3c(C)cc(C)nc23)C1 [III-47]	< 10%	> 60%	30.6 µg/mL (≈ 85.4 µM)
Cc1cc(C)n2cnc(C(=O)N[C@H]3CC[C@H](OC4CCC(C)(C)CC4)CC3)c2n1 [III-46]	10 to 20%	> 60%	4.9 µg/mL (≈ 12.3 µM)
C#Cc1ccc(NC(=O)c2ncn3c(C)cc(C)nc23)c(F)c1 [III-48]	10 to 20%	> 60%	–
COCc1cc(C2CC2)nc2c(C(=O)NC3(C)CCOc4c(F)ccc(F)c43)ncn12 (stereo not drawn) [III-33]	10 to 20%	> 60%	–
C#Cc1ccc(C(C)(C)NC(=O)c2ncn3c(C)cc(C(F)(F)F)nc23)cc1 [III-39]	< 10%	< 30%	–
